Like-named read-outs stand apart in the source and are kept apart here.
What was measured:
[1] = tested on: rodent model of depression; assay: Forced swim test - Depression; assay type: in vivo; settings: all doses listed in the cell
human subjects = settings: cited from earlier work
[2] = human, cited from earlier work
[3] = human, cited from earlier work; remark: listed apart in the source
[4] = 30 mg, day 7 MAD (MTD), morning dosing

C[C@@]1(O)CC[C@H]2[C@H](CC[C@@H]3[C@@H]2CC[C@]2(C)[C@@H](C(=O)Cn4cc(C#N)cn4)CC[C@@H]32)C1 [Sage-217, zuranolone]
Doses in Forced swim test - Depression, * = significantly efficacious dose [1]: 1 - 3* mg/kg | Any adverse event, (%) (human subjects; 20 mg, n-188): (50.0) % | Diarrhea, (%) (human subjects; 20 mg, n-188): (5.9) % | Dizziness, (%) (human subjects; 20 mg, n-188): (7.4) % | Fatigue, (%) (human subjects; 20 mg, n-188): (1.6) % | Headache, (%) (human subjects; 20 mg, n-188): (11.2) % | Nausea, (%) (human subjects; 20 mg, n-188): (5.3) % | Sedation, (%) (human subjects; 20 mg, n-188): (5.9) % | Somnolence, (%) (human subjects; 20 mg, n-188): (5.9) % | Any adverse event, (%) (human subjects; 30 mg, n-192): (54.2) % | Diarrhea, (%) (human subjects; 30 mg, n-192): (6.3) % | Dizziness, (%) (human subjects; 30 mg, n-192): (5.7) % | Fatigue, (%) (human subjects; 30 mg, n-192): (6.8) % | Headache, (%) (human subjects; 30 mg, n-192): (6.3) % | Nausea, (%) (human subjects; 30 mg, n-192): (3.6) % | Sedation, (%) (human subjects; 30 mg, n-192): (4.7) % | Somnolence, (%) (human subjects; 30 mg, n-192): (6.8) % | Tmax ([2]; 55 mg SAD MTD): 1.24 h | SAD MTD ([2]; single ascending dose): SAGE-217 55 mg SAD MTD | ratio of Cmax/trough on day 7 ([3]; 30 mg daily in the evening in a fed state): 5.88 | AUC0-inf [3, 4]: 833.2 ng·h/mL | Cmin [3, 4]: 12.46 ng/mL | Ratio (Cmax/Cmin) [3, 4]: 9.24 | MAD MTD ([3]; multiple ascending dose): SAGE-217 30 mg

Source: patent US20230372364A1, “METHOD OF TREATING GABA MEDIATED DISORDERS” (Eliem Therapeutics (UK) Ltd, priority 2020, published 2023)
